#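 Growth conditions: 96-well plates. Treatment: test compound, 48 hours, 5 concentrations. Analysis: linear interpolation between bracketing concentrations; unreached endpoints set to highest concentration. Abbreviation: GI50, concentration required for 50% inhibition of growth. The concentration for full growth arrest is given as TGI.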
# Key:
# Assay in all cases: growth of human tumour cells (NCI), 48 h
# HCT-116 colon = system: HCT-116 colon
# BT-549 breast = system: BT-549 breast
# OVCAR-3 ovarian = system: OVCAR-3 ovarian
# KM12 colon = system: KM12 colon
# RPMI-8226 leukemia = system: RPMI-8226 leukemia
# HOP-92 NSCLC = system: HOP-92 NSCLC
# MDA-MB-231 breast = system: MDA-MB-231 breast
# UACC-62 melanoma = system: UACC-62 melanoma
# NCI-H23 lung = system: NCI-H23 lung
# MOLT-4 leukemia = system: MOLT-4 leukemia
# SK-MEL-28 melanoma = system: SK-MEL-28 melanoma
# NCI/ADR-RES ovarian = system: NCI/ADR-RES ovarian
# HL-60(TB) leukemia = system: HL-60(TB) leukemia
# LOX IMVI melanoma = system: LOX IMVI melanoma
# 786-0 renal = system: 786-0 renal
# HT29 colon = system: HT29 colon
# RXF 393 renal = system: RXF 393 renal
# SNB-19 CNS = system: SNB-19 CNS
# CAKI-1 renal = system: CAKI-1 renal
# PC-3 prostate = system: PC-3 prostate
# SNB-75 CNS = system: SNB-75 CNS
# OVCAR-4 ovarian = system: OVCAR-4 ovarian
# SK-OV-3 ovarian = system: SK-OV-3 ovarian
# SN12C renal = system: SN12C renal
# NCI-H226 lung = system: NCI-H226 lung
# SF-268 CNS = system: SF-268 CNS
# EKVX NSCLC = system: EKVX NSCLC
# HOP-62 NSCLC = system: HOP-62 NSCLC
# COLO 205 colon = system: COLO 205 colon
# MALME-3M melanoma = system: MALME-3M melanoma
# SK-MEL-5 melanoma = system: SK-MEL-5 melanoma
# NCI-H522 lung = system: NCI-H522 lung
# OVCAR-5 ovarian = system: OVCAR-5 ovarian
# A498 renal = system: A498 renal
# SK-MEL-2 melanoma = system: SK-MEL-2 melanoma
# U251 CNS = system: U251 CNS
# A549 NSCLC = system: A549 NSCLC
# MCF7 breast = system: MCF7 breast
# NCI-H460 lung = system: NCI-H460 lung
# HS 578T breast = system: HS 578T breast
# HCC-2998 colon = system: HCC-2998 colon
# T-47D breast = system: T-47D breast
# UACC-257 melanoma = system: UACC-257 melanoma
# OVCAR-8 ovarian = system: OVCAR-8 ovarian
# IGROV1 ovarian = system: IGROV1 ovarian
# HCT-15 colon = system: HCT-15 colon
# SW-620 colon = system: SW-620 colon
# ACHN renal = system: ACHN renal
# CCRF-CEM leukemia = system: CCRF-CEM leukemia
# DU-145 prostate = system: DU-145 prostate
# SF-539 CNS = system: SF-539 CNS
# TK-10 renal = system: TK-10 renal
# UO-31 renal = system: UO-31 renal
# M14 melanoma = system: M14 melanoma
# SR leukemia = system: SR leukemia
# MDA-MB-435 = system: MDA-MB-435
# K-562 leukemia = system: K-562 leukemia
# SF-295 CNS = system: SF-295 CNS
compound,measurement,setting,value
Cc1ccccc1NC(=O)Nc1nc2ccc([N+](=O)[O-])cc2s1,GI50,HCT-116 colon,2.24 µM
same,TGI,HCT-116 colon,5.21 µM
same,GI50,BT-549 breast,2.18 µM
same,TGI,BT-549 breast,4.53 µM
same,GI50,OVCAR-3 ovarian,1.84 µM
same,TGI,OVCAR-3 ovarian,4.33 µM
same,GI50,KM12 colon,2.49 µM
same,TGI,KM12 colon,8.57 µM
same,GI50,RPMI-8226 leukemia,1.43 µM
same,TGI,RPMI-8226 leukemia,3.76 µM
same,GI50,HOP-92 NSCLC,1.59 µM
same,TGI,HOP-92 NSCLC,4.19 µM
same,GI50,MDA-MB-231 breast,2.74 µM
same,TGI,MDA-MB-231 breast,8.94 µM
same,GI50,UACC-62 melanoma,2.46 µM
same,TGI,UACC-62 melanoma,10.6 µM
same,GI50,NCI-H23 lung,1.79 µM
same,TGI,NCI-H23 lung,4.7 µM
same,GI50,MOLT-4 leukemia,1.76 µM
same,TGI,MOLT-4 leukemia,4.02 µM
same,GI50,SK-MEL-28 melanoma,2.26 µM
same,TGI,SK-MEL-28 melanoma,6.29 µM
same,GI50,NCI/ADR-RES ovarian,2.12 µM
same,TGI,NCI/ADR-RES ovarian,5.03 µM
same,GI50,HL-60(TB) leukemia,1.79 µM
same,TGI,HL-60(TB) leukemia,3.87 µM
same,GI50,LOX IMVI melanoma,1.83 µM
same,TGI,LOX IMVI melanoma,3.53 µM
same,GI50,786-0 renal,2.7 µM
same,TGI,786-0 renal,8.41 µM
same,GI50,HT29 colon,2.03 µM
same,TGI,HT29 colon,4.96 µM
same,GI50,RXF 393 renal,1.89 µM
same,TGI,RXF 393 renal,4.29 µM
same,GI50,SNB-19 CNS,2.72 µM
same,TGI,SNB-19 CNS,7.77 µM
same,GI50,CAKI-1 renal,1.68 µM
same,TGI,CAKI-1 renal,4.02 µM
same,GI50,PC-3 prostate,1.78 µM
same,TGI,PC-3 prostate,4.23 µM
same,GI50,SNB-75 CNS,1.77 µM
same,TGI,SNB-75 CNS,4.78 µM
same,GI50,OVCAR-4 ovarian,2.65 µM
same,TGI,OVCAR-4 ovarian,9.13 µM
same,GI50,SK-OV-3 ovarian,2.05 µM
same,TGI,SK-OV-3 ovarian,5.43 µM
same,GI50,SN12C renal,2.38 µM
same,TGI,SN12C renal,7.12 µM
same,GI50,NCI-H226 lung,2.29 µM
same,TGI,NCI-H226 lung,6.21 µM
same,GI50,SF-268 CNS,3.06 µM
same,TGI,SF-268 CNS,9.95 µM
same,GI50,EKVX NSCLC,2.16 µM
same,TGI,EKVX NSCLC,6.01 µM
same,GI50,HOP-62 NSCLC,2.49 µM
same,TGI,HOP-62 NSCLC,7.01 µM
same,GI50,COLO 205 colon,1.61 µM
same,TGI,COLO 205 colon,3.16 µM
same,GI50,MALME-3M melanoma,2.1 µM
same,TGI,MALME-3M melanoma,4.99 µM
same,GI50,SK-MEL-5 melanoma,1.59 µM
same,TGI,SK-MEL-5 melanoma,3.19 µM
same,GI50,NCI-H522 lung,1.47 µM
same,TGI,NCI-H522 lung,4.24 µM
same,GI50,OVCAR-5 ovarian,2.98 µM
same,TGI,OVCAR-5 ovarian,11.3 µM
same,GI50,A498 renal,1.89 µM
same,TGI,A498 renal,4.41 µM
same,GI50,SK-MEL-2 melanoma,1.98 µM
same,TGI,SK-MEL-2 melanoma,4.49 µM
same,GI50,U251 CNS,1.77 µM
same,TGI,U251 CNS,3.67 µM
same,GI50,A549 NSCLC,2.17 µM
same,TGI,A549 NSCLC,5.8 µM
same,GI50,MCF7 breast,2.36 µM
same,TGI,MCF7 breast,6.69 µM
same,GI50,NCI-H460 lung,2.31 µM
same,TGI,NCI-H460 lung,6.24 µM
same,GI50,HS 578T breast,2.4 µM
same,TGI,HS 578T breast,6.64 µM
same,GI50,HCC-2998 colon,2.29 µM
same,TGI,HCC-2998 colon,5.38 µM
same,GI50,T-47D breast,2.22 µM
same,TGI,T-47D breast,6.28 µM
same,GI50,UACC-257 melanoma,1.89 µM
same,TGI,UACC-257 melanoma,5.12 µM
same,GI50,OVCAR-8 ovarian,2.81 µM
same,TGI,OVCAR-8 ovarian,9.9 µM
same,GI50,IGROV1 ovarian,3.38 µM
same,TGI,IGROV1 ovarian,13.4 µM
same,GI50,HCT-15 colon,2.12 µM
same,TGI,HCT-15 colon,5.48 µM
same,GI50,SW-620 colon,2.54 µM
same,TGI,SW-620 colon,7.86 µM
same,GI50,ACHN renal,1.88 µM
same,TGI,ACHN renal,4.53 µM
same,GI50,CCRF-CEM leukemia,1.76 µM
same,TGI,CCRF-CEM leukemia,5.28 µM
same,GI50,DU-145 prostate,3.23 µM
same,TGI,DU-145 prostate,11.2 µM
same,GI50,SF-539 CNS,2.03 µM
same,TGI,SF-539 CNS,4.43 µM
same,GI50,TK-10 renal,2.9 µM
same,TGI,TK-10 renal,7.11 µM
same,GI50,UO-31 renal,2.02 µM
same,TGI,UO-31 renal,6.33 µM
same,GI50,M14 melanoma,2.42 µM
same,TGI,M14 melanoma,5.85 µM
same,GI50,SR leukemia,1.73 µM
same,TGI,SR leukemia,4.11 µM
same,GI50,MDA-MB-435,2.1 µM
same,TGI,MDA-MB-435,5.71 µM
same,GI50,K-562 leukemia,1.53 µM
same,TGI,K-562 leukemia,4.76 µM
same,GI50,SF-295 CNS,1.72 µM
same,TGI,SF-295 CNS,3.61 µM

# — PubChem BioAssay (NCI)
